Test results taken from patent US20220054540A1, “Ferric Carboxymaltose In The Treatment Of Heart Failure And In The Treatment Of Congestion In Heart Failure” (Vifor (International) AG, priority 2018, published 2022).

Assays:
[1] = cited from earlier work
[2] = system: ambulatory patients with NYHA class II or III CHF and iron deficiency; experiment: FAIR-HF plasma volume status (PVS) substudy: post-hoc analysis of calculated PVS and clinical congestion, IV FCM vs placebo; format: in vivo, human (patients); conditions: for change from baseline in Hct / change from baseline in PVS / change from baseline in weight: mean±SD; for change from baseline in Hct: significant increase compared to placebo
Protocol: FAIR-HF is a multi-centre, randomized, double-blind trial including 459 ambulatory patients with NYHA class II or III CHF, a left ventricular ejection fraction (LVEF) ≤40% (NYHA II) or ≤45% (NYHA III), iron deficiency (ID) as defined by a ferritin <100 ug/l or 100 to 299 ug/l with a transferrin saturation (TSAT)<20%, and a hemoglobin (Hb) level between 9.5 and 13.5 g/dl. Patients were randomized in a 2:1 ratio to intravenous (IV) iron as ferric carboxymaltose (FCM; Ferinject®) or IV placebo (saline) weekly until iron repletion (correction phase), then 4 weekly until week 24 (maintenance phase). FCM was administered in doses of 200 mg (4 mL) weekly up to iron repletion (correction phase of variable duration depending on individual iron deficit). The calculated dose was rounded to the next 100 mg iron, i.e. the final dose may be 100 mg iron depending on the individual iron deficit. After the correction phase, FCM was administered monthly in doses of 200 mg until the 24th week (maintenance phase).
In the placebo group, during the correction phase, patients will receive the number of normal saline injections (4 mL weekly) corresponding to the calculated total iron dose needed according to the individual iron deficit. During the maintenance phase, placebo patients will receive 4 mL normal saline monthly. Regular assessments were done at weeks 4, 12, and 24.
The hematocrit value (Hct or Ht) and weight at randomization were used for plasma volume status (PVS) calculations and were available in 436 (95%) patients whose data were therefore used in this post-hoc analysis.
Actual plasma volume (PV) was calculated with the following equation that was derived by curve-fitting techniques using subjects' Hct and weight compared with PV values measured with gold standard radioisotope assays:
actual PV=([1−Hct]×[a+(b×weight [kg])])
where Hct is a fraction and a=1530 in males and 864 in females, and b=41 in males and 47.9 in females.
Ideal PV was calculated from the following well established formula:
where c=39 in males and 40 in females
Relative PVS, an index of the degree to which patients have deviated from their ideal PV, was subsequently calculated from the following equation:
PVS=([actual PV−ideal PV]/ideal PV)×100%
Patients were weighed and examined for signs and symptoms of congestion at randomization and at weeks 4, 12 and 24. The presence or absence of peripheral edema, pulmonary congestion (crackles, rales), and an S3 gallop (third heart sound) were recorded, as was the actual jugular venous pressure (JVP).
Data are presented as mean±SD, frequencies (%), or medians (interquartile range [IQR]). Intergroup comparisons were made using a Kruskall-Wallis analysis of variance (ANOVA), analysis of covariance (ANCOVA), Student t-test, Pearson χ2 test, or a Mann Whitney U-test as appropriate. Associations between variables were determined using logistic regression. A P-value <0.10 was used to enter and retain covariates into stepwise multivariable regression models.
To assess the impact of treatment assignment on PVS, comparisons of changes in PVS from baseline at 4, 12, and 24 weeks between the placebo and FCM group were evaluated by comparing the least square means at each visit from a repeated-measures model using an unstructured covariance structure and adjusting for the continuous baseline value and a visit x drug interaction. Changes over time for other variables were similarly determined.

[3] = cited from earlier work; remark: listed apart in the source
[4] = publications, e.g. Qunibi et al. 2011; cited from earlier work
[5] = system: ambulatory patients with NYHA class II or III CHF and iron deficiency; conditions: after 24 weeks of treatment, IV FCM compared to saline; cited from earlier work
[6] = week 4, significant reduction compared to placebo

polynuclear iron(III)-oxyhydroxide carboxypolymaltose (carboxymaltodextrin) [FCM]
dextran cross-reactivity ([1]; in vivo): no dextran cross-reactivity
tolerability of rapid infusion ([1]; up to 1000 mg of elemental iron over 15 min, intravenous): well tolerated
peripheral edema ([2]; FCM treatment compared to placebo (FIG. 2d)): improvement in peripheral edema
improvement in pulmonary edema ([2]; FCM treatment vs placebo, P=0.35): not evident
improvement in jugular venous distension ([2]; FCM treatment vs placebo, P=0.54): not evident
improvement in presence of an S3 gallop rhythm ([2]; FCM treatment vs placebo, P=1.00): not evident
time of maximal treatment effect on PVS ([2]; FCM vs placebo): 12 week
change from baseline in Hct ([2]; week 4): 2 ± 4%
change from baseline in PVS [2, 6]: −2.5±5.9%
change from baseline in weight [2, 6]: -0.2 ± 2.4 kg
change from baseline in weight ([2]; week 12, not significant compared to placebo): 0.2 ± 3.0 kg
change from baseline in Hct ([2]; week 12): 3 ± 4%
change from baseline in PVS ([2]; week 12, significant reduction compared to placebo): −3.9±6.8%
change from baseline in weight ([2]; week 24, not significant compared to placebo): 0.3 ± 3.2 kg
change from baseline in Hct ([2]; week 24): 3 ± 5%
change from baseline in PVS ([2]; week 24, significant reduction compared to placebo): −4.1±7.4%
stability of the iron-carbohydrate complex ([3]; compared with ferric gluconate and iron sucrose): more stable than ferric gluconate or iron sucrose
pH of the complex ([3]; nearly neutral): 5.0-7.0
peripheral edema as adverse event [4]: one of the most commonly occurring adverse events
6 minute walking distance (6MWD) [5]: significant improvements
NYHA class [5]: significant improvements
Patient Global Assessment (PGA) [5]: significant improvements
